Measurements: patent US20230159469A1, “NOVEL PHTHALAZINE DERIVATIVE HAVING ECTONUCLOEOTIDE PYROPHOSPHATASE/PHOSPHODIESTE RASE INHIBITORY ACTIVITY, AND USE THEREOF” (TXINNO BIOSCIENCE INC., priority 2020, published 2023)
Where a name gives a salt, the structure may show the parent alone.

Each compound was assayed against T1, human recombinant ENPP1 (Homo sapiens, UniProt P22413) (assay: ENPP1 enzyme assay with cGAMP substrate (AMP-Glo luminescence)). Conditions: human recombinant ENPP1 3 ng/reaction, cGAMP 5 μM, 37° C. 90 minutes, read-out: Enzymatic activity (ENPP1 IC50).
T1 construct: purchased R & D systems
T1 sequence (P22413 1-925): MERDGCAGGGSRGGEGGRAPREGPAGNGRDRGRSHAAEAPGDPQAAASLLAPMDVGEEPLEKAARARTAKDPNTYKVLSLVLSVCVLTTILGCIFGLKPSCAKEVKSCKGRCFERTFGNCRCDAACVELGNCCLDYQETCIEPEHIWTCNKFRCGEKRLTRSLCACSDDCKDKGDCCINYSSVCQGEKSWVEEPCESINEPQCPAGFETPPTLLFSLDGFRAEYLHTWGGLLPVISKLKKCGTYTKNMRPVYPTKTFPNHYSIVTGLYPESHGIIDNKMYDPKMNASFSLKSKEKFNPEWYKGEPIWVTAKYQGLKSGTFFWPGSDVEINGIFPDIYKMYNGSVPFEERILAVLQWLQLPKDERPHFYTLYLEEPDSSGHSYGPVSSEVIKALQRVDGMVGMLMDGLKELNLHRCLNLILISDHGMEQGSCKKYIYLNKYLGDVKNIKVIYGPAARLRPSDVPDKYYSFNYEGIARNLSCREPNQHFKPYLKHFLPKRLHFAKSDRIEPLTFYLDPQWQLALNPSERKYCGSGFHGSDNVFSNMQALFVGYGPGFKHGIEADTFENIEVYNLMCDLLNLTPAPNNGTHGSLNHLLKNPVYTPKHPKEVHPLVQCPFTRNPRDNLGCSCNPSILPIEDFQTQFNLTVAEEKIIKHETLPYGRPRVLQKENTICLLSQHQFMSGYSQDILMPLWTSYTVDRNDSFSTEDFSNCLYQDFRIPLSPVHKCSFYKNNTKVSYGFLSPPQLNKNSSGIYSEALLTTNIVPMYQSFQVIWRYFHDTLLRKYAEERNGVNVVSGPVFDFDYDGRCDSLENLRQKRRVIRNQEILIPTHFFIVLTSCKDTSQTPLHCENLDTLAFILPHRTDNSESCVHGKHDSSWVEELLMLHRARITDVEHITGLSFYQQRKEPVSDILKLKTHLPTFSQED
Assay type: biochemical
How it was run: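 Human ENPP1 hydrolysis of 5 μM cGAMP was run for 90 min at 37° C in 50 mM Tris pH 8.5, 250 mM NaCl, 0.5 mM CaCl2, 1 μM ZnCl2, 5% glycerol, 1% DMSO. AMP product was quantified by AMP-Glo luminescence; IC50 came from 3-parameter fits of % residual activity, averaged over at least two runs.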

Row | Compound | IC50 [µM]
1 | COc1cc2c(Cc3ccc4c(c3)CCN4S(N)(=O)=O)nn(C)c(=O)c2cc1OC [Example 188, 5-((6,7-dimethoxy-3-methyl-4-oxo-3,4-dihydrophthalazin-1-yl)methyl)indoline-1-sulfonamide hydrochloride] | < 1
2 | NS(=O)(=O)Nc1ccc(Cc2n[nH]c(=O)c3ccccc23)c(C(F)(F)F)c1 [Example 191, N-(3-(trifluorobenzylmethyl)-4-((4-oxo-3,4-dihydrophthalazin-1-yl)methyl)phenyl)sulfamide hydrochloride] | < 1
3 | NS(=O)(=O)Nc1ccc(Cc2n[nH]c(=O)c3ccccc23)cc1C(F)(F)F [Example 192, N-(2-(trifluorobenzylmethyl)-4-((4-oxo-3,4-dihydrophthalazin-1-yl)methyl)phenyl)sulfamide hydrochloride] | < 1
4 | COc1cc2c(Cc3cccc(Br)c3)n[nH]c(=O)c2cc1OC [Example 193] | > 10
5 | COc1cc2c(Cc3ccc(Br)cc3)n[nH]c(=O)c2cc1OC [Example 194, 4-(4-bromobenzyl)-6,7-dimethoxyphthalazin-1(2H)-one] | > 10
6 | COc1cc2c(-c3ccc(CN)c(C(F)(F)F)c3)n[nH]c(=O)c2cc1OC [Example 203, 4-(4-(aminomethyl)-3-(trifluoromethyl)phenyl-6,7-dimethoxyphthalazin-1(2.8)-one hydrochloride] | > 10

Second part, the compound after the results:

Row | IC50 [µM] | Compound
7 | < 1 | NS(=O)(=O)Nc1ccc(Cc2n[nH]c(=O)c3ccccc23)c(F)c1 [Example 189, N-(3-fluoro-4-((4-oxo-3,4-dihydrophthalazin-1-yl)methyl)phenyl)sulfamide hydrochloride]
8 | < 1 | NS(=O)(=O)Nc1ccc(Cc2n[nH]c(=O)c3ccccc23)cc1F [Example 190, N-(2-fluoro-4-((4-oxo-3,4-dihydrophthalazin-1-yl)methyl)phenyl)sulfamide hydrochloride]
9 | > 10 | CS(=O)(=O)NCc1ccc(-c2n[nH]c(=O)c3ccccc23)cc1 [Example 195, N-(4-(4-oxo-3,4-dihydrophthalazin-1-yl)benzyl)methanesulfonamide]
10 | > 10 | O=c1[nH]nc(-c2ccc(CNS(=O)(=O)C3CC3)cc2)c2ccccc12 [Example 196, N -(4-(4-oxo-3,4-dihydrophthalazin-1-yl)benzyl)cyclopropanesulfonamide]
11 | > 10 | Cc1ccc(S(=O)(=O)NCc2ccc(-c3n[nH]c(=O)c4ccccc34)cc2)cc1 [Example 197, 4-methyl-N-(4-(4-oxo-3,4-dihydrophthalazin-1-yl)benzyl)benzenesulfonamide]
12 | > 10 | O=c1[nH]nc(-c2ccc(CNS(=O)(=O)c3cccs3)cc2)c2ccccc12 [Example 198, N-(4-(4-oxo-3,4-dihydrophthalazin-1-yl)benzyl)thiophene-2-sulfonamide]
13 | > 10 | CNS(=O)(=O)Cc1ccc(-c2nn(C)c(=O)c3ccccc23)cc1 [Example 200, N methyl-1-(4-(3-methyl-4-oxo-3,4-dihydrophthalazin-1-yl)phenyl)methanesulfonamide]
14 | > 10 | Cn1nc(-c2ccc(CS(=O)(=O)N3CCOCC3)cc2)c2ccccc2c1=O [Example 201, 2-methyl-4-(4-((morpholinosulfonyl)methyl)phenyl)phthalazin-1 (2H)-one]
15 | 1 to 10 | Cn1nc(-c2ccc(CCS(N)(=O)=O)cc2)c2ccccc2c1=O [Example 202, 2-(4-(3-methyl-4-oxo-3,4-dihydrophthalazin-1-yl)phenyl)ethane-1-sulfonamide]
